Columns and labels:
E. coli ATCC 8739 = assay: Antimicrobial activity, tube dilution method; type: cell-based, Escherichia coli; conditions: four repeated experiments; for MIC: 24 h at 37 °C; for MBC: kills 99.9% or more
Experimental: (§1) Antimicrobial activity was measured via the tube dilution method as described previously. Briefly, E. coli, S. aureus, S. enteritidis and L. monocytogenes were cultured in Mueller-Hinton broth for 24 h at 37 °C. A microorganism suspension of 10^6 cfu mL^−1 (cfu, colony forming units) was prepared from each culture. IL solutions (31.3–1500 mM) were prepared with sterilized Mueller-Hinton broth, and then were sterilized by filtration (0.45 µm pore-diameter membrane). The various permutations of microorganism suspension (50 µL) and IL solution (50 µL) were mixed in 96-well microtiter plate. Growth of the microorganisms was determined visually after incubation for 24 h at 37 °C. Controls were conducted under the same conditions: negative controls without microorganisms and positive controls without ILs. The lowest concentration at which there was no visible growth (turbidity) was taken as the minimal inhibitory concentration (MIC). Samples of 20 µL from each well were spread onto Mueller-Hinton agar medium with inactivates (0.3% lecithin, 3% polysorbate 80 and 0.1% L-cysteine) and incubated for 48 h at 37 °C. The lowest concentration of the IL that killed 99.9% or more of the test bacterium was taken as the minimum biocidal concentration (MBC).

[1] = system: S. enteritidis ATCC 14128; assay: Antimicrobial activity, tube dilution method; type: cell-based, Salmonella enteritidis; conditions: four repeated experiments; for MIC: 24 h at 37 °C; for MBC: kills 99.9% or more
Experimental: as §1

S. aureus ATCC 29213 = assay: Antimicrobial activity, tube dilution method; type: cell-based, Staphylococcus aureus; conditions: four repeated experiments; for MIC: 24 h at 37 °C; for MBC: kills 99.9% or more
Experimental: as §1

[2] = system: L. monocytogenes ATCC 19115; assay: Antimicrobial activity, tube dilution method; type: cell-based, Listeria monocytogenes; conditions: four repeated experiments; for MIC: 24 h at 37 °C; for MBC: kills 99.9% or more
Experimental: as §1

[3] = biological target: T1, AChE type VI-S (from the electric eel) (Electrophorus electricus, UniProt O42275); assay: AChE inhibition assay (colorimetric, DTNB reduction); type: biochemical; conditions: DTNB 0.5 mM, AChE 0.05 U mL^−1, acetylthiocholine iodide 0.5 mM, 37 °C, phosphate buffer pH 8.0; mean ± SD; read-out: EC50±SD (toxicity toward AChE)
T1 construct: purchased Sigma–Aldrich, USA type VI-S (catalogue number not given)
Experimental: A colorimetric assay based on reduction of DTNB was used to measure AChE inhibition as described previously, [24], in the presence of a phosphate buffer system in order to eliminate the effects of pH changes on enzyme activity. Briefly, IL solutions were prepared with 0.2 M phosphate buffer (pH 8.0) in 96-well microtiter plates. The enzyme (0.2 U mL^−1, plus 0.25 mg mL^−1 bovine serum albumin in the same phosphate buffer), and DTNB (2 mM, plus 0.185 mg mL^−1 NaHCO3 in the same phosphate buffer) were added to each well and kept at 37 °C for 5 min, and then the reaction was initiated by adding acetylthiocholine iodide (2 mM in the same phosphate buffer). In the experimental reactions, the final concentrations of DTNB, acetylthiocholine iodide and AChE were 0.5 mM, 0.5 mM and 0.05 U mL^−1, respectively. Except where stated otherwise, the concentration range used to calculate EC50 of the [Ch][AA] ILs was 0–50 mM. However, for strongly alkaline [Ch][AA] ILs such as [Ch][Lys], the maximum concentration used was 20 mM in order to avoid changes in enzyme activity due to pH changes that would be caused if the IL exceeded the buffering capacity of the phosphate buffer. Acidic amino acid-derived ILs ([Ch][Asp] and [Ch][Glu]) were used up to 80 mM. The control compounds cholinium chloride ([Ch][Cl]), [Bmim][BF4] and acetone were used at concentration ranges of 0–80 mM, 0–50 mM and 10 mM–2.5 M, respectively. Control experiments without enzyme were carried out under otherwise identical conditions. Reduction of DTNB was monitored at 405 nm and at 10 second intervals in a microplate reader (Wallac 1420 VICTOR3, PerkinElmer, Singapore) over a period of 5 min. Enzyme activity was expressed as ΔOD min^−1 obtained via linear regression analysis. All assays were performed at least in triplicate.
All data were analyzed by One-Way analysis of variance using SPSS 11.5 (SPSS Inc., USA). EC50 values are presented as mean ± standard deviation (SD) from at least three repeats, and confidence intervals (α = 0.05) of EC50 are also presented. The One-Way ANOVA was used to judge if the difference between the different ILs groups was significant. When the p value was<0.05, the difference was considered to be significant.

T1 sequence (O42275 24-633): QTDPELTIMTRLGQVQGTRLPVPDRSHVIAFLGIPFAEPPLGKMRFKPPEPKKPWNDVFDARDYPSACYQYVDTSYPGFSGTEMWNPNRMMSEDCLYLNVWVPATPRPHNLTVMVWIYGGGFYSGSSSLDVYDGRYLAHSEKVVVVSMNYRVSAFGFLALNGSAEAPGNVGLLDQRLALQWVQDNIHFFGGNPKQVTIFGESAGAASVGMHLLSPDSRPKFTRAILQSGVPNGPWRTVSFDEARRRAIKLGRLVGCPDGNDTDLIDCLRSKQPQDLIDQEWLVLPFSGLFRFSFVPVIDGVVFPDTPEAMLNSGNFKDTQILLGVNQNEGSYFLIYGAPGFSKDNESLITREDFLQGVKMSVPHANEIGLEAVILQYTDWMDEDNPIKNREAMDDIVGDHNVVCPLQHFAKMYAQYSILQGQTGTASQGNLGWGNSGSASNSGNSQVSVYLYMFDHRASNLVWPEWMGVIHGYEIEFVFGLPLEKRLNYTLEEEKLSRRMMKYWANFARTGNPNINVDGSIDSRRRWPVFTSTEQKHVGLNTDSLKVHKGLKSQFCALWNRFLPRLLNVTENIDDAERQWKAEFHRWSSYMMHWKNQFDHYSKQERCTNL

Q: Which results are given for `C[N+](C)(C)CCO.NCC(=O)[O-]` [[Ch][Gly]]?
A: MIC (E. coli ATCC 8739): 125 mM; MBC (E. coli ATCC 8739): 250 mM; MIC [1]: 93.8 mM; MBC [1]: 125 mM; MIC (S. aureus ATCC 29213): 250 mM; MBC (S. aureus ATCC 29213): 500 mM; MIC [2]: 250 mM; MBC [2]: 500 mM

Q: `CC(C)C[C@H](N)C(=O)[O-].C[N+](C)(C)CCO` [[Ch][Leu]] was tested. Which MIC (E. coli ATCC 8739) did it give?
A: Its MIC is 46.9 mM.

Q: What about the MBC (E. coli ATCC 8739) of the same compound?
A: Its MBC is 62.5 mM.

Q: And the MIC [1]?
A: The MIC was 46.9 mM.

Q: And the MBC [1]?
A: Its MBC is 62.5 mM.

Q: And the EC50 [3]?
A: Its EC50 is 3.36 ± 0.05 mM.

Q: What about the MIC (S. aureus ATCC 29213) of the same compound?
A: Its MIC is 93.8 mM.

Q: And the MBC (S. aureus ATCC 29213)?
A: Its MBC is 125 mM.

Q: What about the MIC [2] of the same compound?
A: Its MIC is 46.9 mM.

Q: What about the MBC [2] of the same compound?
A: Its MBC is 62.5 mM.

Q: With `C[N+](C)(C)CCO.N=C(N)NCCC[C@H](N)C(=O)[O-]` [[Ch][Arg]] as the compound, how does the MIC (E. coli ATCC 8739) read?
A: Its MIC is 46.9 mM.

Q: And the MBC (E. coli ATCC 8739)?
A: The MBC was 93.8 mM.

Q: What about the MIC [1] of the same compound?
A: The MIC was 46.9 mM.

Q: What about the MBC [1] of the same compound?
A: The MBC was 62.5 mM.

Q: What about the EC50 [3] of the same compound?
A: Its EC50 is 3.67 ± 0.07 mM.

Q: And the MIC (S. aureus ATCC 29213)?
A: Its MIC is 93.8 mM.

Q: What about the MBC (S. aureus ATCC 29213) of the same compound?
A: Its MBC is 125 mM.

Q: And the MIC [2]?
A: Its MIC is 93.8 mM.

Q: What about the MBC [2] of the same compound?
A: Its MBC is 125 mM.

Q: Which results are given for `C[C@H](N)C(=O)[O-].C[N+](C)(C)CCO` [[Ch][Ala]]?
A: MIC (E. coli ATCC 8739): 46.9 mM; MBC (E. coli ATCC 8739): 93.8 mM; MIC [1]: 62.5 mM; MBC [1]: 93.8 mM; MIC (S. aureus ATCC 29213): 188 mM; MBC (S. aureus ATCC 29213): 250 mM; MIC [2]: 188 mM; MBC [2]: 250 mM

Q: Which MIC (E. coli ATCC 8739) does the source give for `C[N+](C)(C)CCO.N[C@@H](Cc1cnc[nH]1)C(=O)[O-]` [[Ch][His]] here?
A: Its MIC is 46.9 mM.

Q: And the MBC (E. coli ATCC 8739)?
A: The MBC was 62.5 mM.

Q: And the MIC [1]?
A: The MIC was 46.9 mM.

Q: And the MBC [1]?
A: The MBC was 62.5 mM.

Q: What about the MIC (S. aureus ATCC 29213) of the same compound?
A: The MIC was 93.8 mM.

Q: What about the MBC (S. aureus ATCC 29213) of the same compound?
A: Its MBC is 125 mM.

Q: What about the MIC [2] of the same compound?
A: Its MIC is 93.8 mM.

Q: What about the MBC [2] of the same compound?
A: Its MBC is 125 mM.

Q: For `C[N+](C)(C)CCO.NC(=O)C[C@H](N)C(=O)[O-]` [[Ch][Asn]], which MIC (E. coli ATCC 8739) is on record?
A: Its MIC is 93.8 mM.

Q: What about the MBC (E. coli ATCC 8739) of the same compound?
A: Its MBC is 125 mM.

Q: What about the MIC [1] of the same compound?
A: The MIC was 93.8 mM.

Q: What about the MBC [1] of the same compound?
A: The MBC was 125 mM.

Q: What about the MIC (S. aureus ATCC 29213) of the same compound?
A: The MIC was 188 mM.

Q: And the MBC (S. aureus ATCC 29213)?
A: Its MBC is 250 mM.

Q: What about the MIC [2] of the same compound?
A: Its MIC is 250 mM.

Q: And the MBC [2]?
A: The MBC was 250 mM.

Q: What does the source list for `C[N+](C)(C)CCO.NC(=O)CC[C@H](N)C(=O)[O-]` [[Ch][Gln]]?
A: MIC (E. coli ATCC 8739): 125 mM; MBC (E. coli ATCC 8739): 188 mM; MIC [1]: 93.8 mM; MBC [1]: 125 mM; MIC (S. aureus ATCC 29213): 125 mM; MBC (S. aureus ATCC 29213): 188 mM; MIC [2]: 188 mM; MBC [2]: 250 mM

Q: With `C[N+](C)(C)CCO.[Cl-]` [[Ch][Cl], cholinium chloride, reference compound] as the compound, how does the MIC (E. coli ATCC 8739) read?
A: Its MIC is >750 mM.

Q: What about the MBC (E. coli ATCC 8739) of the same compound?
A: Its MBC is >750 mM.

Q: And the MIC [1]?
A: The MIC was >750 mM.

Q: And the MBC [1]?
A: The MBC was >750 mM.

Q: And the EC50 [3]?
A: Its EC50 is 3.16 ± 0.09 mM.

Q: What about the MIC (S. aureus ATCC 29213) of the same compound?
A: The MIC was >750 mM.

Q: What about the MBC (S. aureus ATCC 29213) of the same compound?
A: Its MBC is >750 mM.

Q: What about the MIC [2] of the same compound?
A: Its MIC is >750 mM.

Q: And the MBC [2]?
A: Its MBC is >750 mM.

Q: With `NC(=O)C[C@H](N)C(=O)O` [[Ch][Asn]] as the compound, how does the EC50 [3] read?
A: Its EC50 is 3.94 ± 0.05 mM.

Q: How did the EC50 [3] turn out when `C[C@H](N)C(=O)O` [[Ch][Ala]] was run?
A: Its EC50 is 3.33 ± 0.1 mM.

Q: What does the source list for `C[N+](C)(C)CCO.N[C@@H](CO)C(=O)[O-]` [[Ch][Ser]]?
A: MIC (E. coli ATCC 8739): 31.3 mM; MBC (E. coli ATCC 8739): 62.5 mM; MIC [1]: 46.9 mM; MBC [1]: 62.5 mM; MIC (S. aureus ATCC 29213): 125 mM; MBC (S. aureus ATCC 29213): 250 mM; MIC [2]: 93.8 mM; MBC [2]: 125 mM

Q: `C[C@@H](O)[C@H](N)C(=O)[O-].C[N+](C)(C)CCO` [[Ch][Thr]] was tested. Which MIC (E. coli ATCC 8739) did it give?
A: The MIC was 31.3 mM.

Q: And the MBC (E. coli ATCC 8739)?
A: The MBC was 62.5 mM.

Q: What about the MIC [1] of the same compound?
A: Its MIC is 46.9 mM.

Q: What about the MBC [1] of the same compound?
A: Its MBC is 62.5 mM.

Q: And the MIC (S. aureus ATCC 29213)?
A: The MIC was 125 mM.

Q: And the MBC (S. aureus ATCC 29213)?
A: Its MBC is 250 mM.

Q: And the MIC [2]?
A: Its MIC is 93.8 mM.

Q: And the MBC [2]?
A: Its MBC is 125 mM.

Q: Which MIC (E. coli ATCC 8739) does the source give for `CSCC[C@H](N)C(=O)[O-].C[N+](C)(C)CCO` [[Ch][Met]] here?
A: Its MIC is 31.3 mM.

Q: And the MBC (E. coli ATCC 8739)?
A: The MBC was 62.5 mM.

Q: And the MIC [1]?
A: The MIC was 31.3 mM.

Q: And the MBC [1]?
A: The MBC was 62.5 mM.

Q: What about the MIC (S. aureus ATCC 29213) of the same compound?
A: The MIC was 125 mM.

Q: What about the MBC (S. aureus ATCC 29213) of the same compound?
A: The MBC was 250 mM.

Q: And the MIC [2]?
A: The MIC was 125 mM.

Q: And the MBC [2]?
A: The MBC was 250 mM.

Q: `O=C(O)[C@@H]1CCCN1` [[Ch][Pro]] was tested. Which EC50 [3] did it give?
A: The EC50 was 3.37 ± 0.16 mM.

From PMC3598705, “Evaluation of Toxicity and Biodegradability of Cholinium Amino Acids Ionic Liquids” (PLoS ONE, 2013)
